Reference: article PMC11462260, “Anthricin-induced hyperactive proteasome and its molecular mechanism” (Biochemistry and Biophysics Reports, 2024)

Target: T1, human 20S proteasome (Homo sapiens, UniProt P28072+P28074+Q99436)
T1 construct: gene PSMB6; native 20S core particle from human erythrocytes (commercial), 28 subunits of 14 types, lysine-biotinylated, on streptavidin beads
Assay: pull-down on biotinylated proteasome beads, LC-MS/MS of eluate
Conditions: 20 uM anthricin, 250 pmol proteasome, 30 min, room temperature, D-PBS with 0.1 % BSA; binding site not mapped experimentally

Structure (SMILES): COc1cc([C@@H]2c3cc4c(cc3C[C@H]3COC(=O)[C@@H]32)OCO4)cc(OC)c1OC [anthricin]
- pull-down on biotinylated proteasome beads, LC-MS/MS of eluate: When anthricin was mixed with the proteasome-immobilized beads, a clear peak corresponding to anthricin was detected
